Measurements as given in patent publication US11248030B2, “Dual IL-2R and IL-7R binding compounds” (MEDIKINE, INC., priority 2019, dated 2022).

Target: T1, IL-7Rα subunit (Homo sapiens, UniProt P16871)
T1 construct: human IL-7Rα (CD127 protein, Fc Tag) (21-236); Fc; purchased ACRObiosystems, Inc. ILB-H5258
Assay: competitive binding assay, specific binding site on the IL-7Rα subunit
Details: specific binding site distinct from that of IL-7

T1 sequence (P16871 21-236): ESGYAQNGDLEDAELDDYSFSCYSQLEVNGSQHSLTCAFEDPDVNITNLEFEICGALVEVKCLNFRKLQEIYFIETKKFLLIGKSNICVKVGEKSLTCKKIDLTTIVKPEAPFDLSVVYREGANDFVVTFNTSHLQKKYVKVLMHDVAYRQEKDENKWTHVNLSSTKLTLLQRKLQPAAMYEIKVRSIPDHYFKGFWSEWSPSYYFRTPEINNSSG

IC50 [µM] | Compound
< 10 | CC[C@H](C)[C@@H]1NC(=O)[C@H](CCC(=O)O)NC(=O)[C@H](C)NC(=O)[C@@H](NC(=O)[C@H](Cc2ccc(O)cc2)NC(=O)[C@@H](N)C(C)C)CSSC[C@@H](C(=O)N[C@@H](CCCNC(=N)N)C(=O)N[C@@H](CCC(N)=O)C(=O)O)NC(=O)[C@H](C(C)C)NC(=O)[C@H](CCCNC(=N)N)NC(=O)[C@H](Cc2ccc(O)cc2)NC(=O)[C@H](CCC(=O)O)NC(=O)CNC1=O [SEQ ID NO: 2043, V Y C A E I G E Y R V C R Q]
< 10 | CC[C@H](C)[C@@H]1NC(=O)[C@@H](NC(=O)[C@@H](N)CCC(N)=O)CSSC[C@@H](C(=O)N[C@H](C(=O)O)C(C)C)NC(=O)[C@H](CO)NC(=O)[C@H](CC(C)C)NC(=O)[C@H](CC(C)C)NC(=O)[C@H]([C@@H](C)O)NC(=O)[C@H](CCC(=O)O)NC(=O)[C@H]([C@@H](C)CC)NC(=O)[C@H](CC(=O)O)NC(=O)[C@H](Cc2c[nH]c3ccccc23)NC(=O)[C@H](Cc2c[nH]cn2)NC1=O [SEQ ID NO: 2159, Q C I H W D I E T L L S C V]
< 10 | CC(C)C[C@@H]1NC(=O)[C@H](CO)NC(=O)CNC(=O)[C@@H]2CCCN2C(=O)[C@H](CC(=O)O)NC(=O)[C@H](CC(C)C)NC(=O)[C@H]([C@@H](C)O)NC(=O)[C@@H](NC(=O)[C@H](Cc2c[nH]c3ccccc23)NC(=O)[C@@H]2CCCN2C(=O)[C@@H](N)C(C)C)CSSC[C@@H](C(=O)N[C@@H](C)C(=O)N[C@@H](Cc2c[nH]c3ccccc23)C(=O)N[C@@H](Cc2ccccc2)C(=O)O)NC(=O)[C@H](CCC(N)=O)NC1=O [SEQ ID NO: 2313, V P W C T L D P G S L Q C A W F]

Target: T2, IL-2Rβ subunit (Homo sapiens, UniProt P14784)
T2 construct: human IL-2Rβ (CD122 protein, Fc Tag) (27-239); Fc; purchased ACRObiosystems, Inc. ILB-H5253
T2 sequence (P14784 27-239): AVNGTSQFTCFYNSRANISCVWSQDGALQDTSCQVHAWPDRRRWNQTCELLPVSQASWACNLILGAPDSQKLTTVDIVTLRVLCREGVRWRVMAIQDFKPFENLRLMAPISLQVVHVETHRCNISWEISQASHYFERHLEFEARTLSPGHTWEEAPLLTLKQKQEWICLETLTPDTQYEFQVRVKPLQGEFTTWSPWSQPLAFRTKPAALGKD
Assay: competitive binding assay, specific binding site on the IL-2Rβ subunit
Details: not given

IC50 [µM] | Compound
< 10 | CC[C@H](C)[C@@H]1NC(=O)[C@H](CCCNC(=N)N)NC(=O)[C@@H](NC(=O)[C@H](CC(=O)O)NC(=O)[C@@H](N)Cc2ccc(O)cc2)CSSC[C@@H](C(=O)N[C@@H](CC(=O)O)C(=O)N[C@@H](CC(C)C)C(=O)O)NC(=O)[C@H](CC(C)C)NC(=O)[C@H](CCC(=O)O)NC(=O)CNC(=O)[C@H](C(C)C)NC(=O)[C@H](CCC(N)=O)NC(=O)[C@H](C)NC1=O [SEQ ID NO: 154, Y D C R I A Q V G E L C D L]
< 10 | CC[C@H](C)[C@H](NC(=O)[C@H](CCC(N)=O)NC(=O)[C@@H]1CSSC[C@H](NC(=O)[C@H](CCSC)NC(=O)[C@@H](N)CC(N)=O)C(=O)N[C@@H](CC(C)C)C(=O)N[C@@H](C(C)C)C(=O)NCC(=O)N[C@@H](CC(=O)O)C(=O)N[C@@H](Cc2ccc(O)cc2)C(=O)N[C@@H](Cc2c[nH]c3ccccc23)C(=O)N2CCC[C@H]2C(=O)N[C@@H](CO)C(=O)N1)C(=O)O [SEQ ID NO: 180, N M C L V G D Y W P S C Q I]
< 10 | CSCC[C@H](NC(=O)[C@H](CC(C)C)NC(=O)[C@H](CC(C)C)NC(=O)[C@H](CC(=O)O)NC(=O)CNC(=O)[C@@H](NC(=O)[C@H](CC(=O)O)NC(=O)CNC(=O)[C@H](Cc1c[nH]c2ccccc12)NC(=O)[C@@H](N)CCCNC(=N)N)C(C)C)C(=O)N1CCC[C@H]1C(=O)N[C@@H](CC(C)C)C(=O)O [SEQ ID NO: 209, R W G D V G D L L M P L]
